# Experimental data as given in EP0993460B1, “BENZO(5,6)CYCLOHEPTA(1,2B)PYRIDINE DERIVATIVES USEFUL FOR INHIBITION OF FARNESYL PROTEIN TRANSFERASE” (SCHERING CORPORATION, priority 1997, dated 1998).
# System: COS Cell
# Assay: COS Cell IC50 (Cell-Based Assay), procedures of WO 95/10516
# Experimental: FPT IC50 (inhibition of farnesyl protein transferase, in vitro enzyme assay) and COS Cell IC50 (Cell-Based Assay) were determined following the assay procedures described in WO 95/10516, published April 20, 1995. GGPT IC50 (inhibition of geranylgeranyl protein transferase, in vitro enzyme assay), Cell Mat Assay, and anti-tumor activity (in vivo anti-tumor studies) could be determined by the assay procedures described in WO 95/ 10516. The disclosure of WO 95/10516 is incorporated herein by reference thereto.
compound,measurement,value
"CC1(CC(=O)N2CCC([C@H]3c4ncc(Br)cc4CCc4cc(Cl)cc(Br)c43)CC2)CCN(S(C)(=O)=O)CC1 [Example 1, (+) -4-(3,10-dibromo-8-chloro-6,11-dihydro-5H-benzo[5,6]cyclohepta[1,2-b]pyridin-11(R)-yl)-1-[[4-methyl-1-(methylsulfonyl)-4-pyridinyl]acetyl]piperidine]",IC50,22 nM
